According to PubChem BioAssay (NCI):
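How tested: cells in 96-well plates exposed to compound for 48 hours at five concentrations. TGI marks complete inhibition of growth.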

Tests used:
Assay in all cases: NCI tumour cell line growth inhibition, 48 h
OVCAR-5 ovarian = system: OVCAR-5 ovarian
MOLT-4 leukemia = system: MOLT-4 leukemia
COLO 205 colon = system: COLO 205 colon
MCF7 breast = system: MCF7 breast
ACHN renal = system: ACHN renal
UACC-62 melanoma = system: UACC-62 melanoma
U251 CNS = system: U251 CNS
NCI-H522 lung = system: NCI-H522 lung
SNB-75 CNS = system: SNB-75 CNS
TK-10 renal = system: TK-10 renal
MDA-MB-435 = system: MDA-MB-435
EKVX NSCLC = system: EKVX NSCLC
NCI-H460 lung = system: NCI-H460 lung
HS 578T breast = system: HS 578T breast
BT-549 breast = system: BT-549 breast
MDA-MB-231 breast = system: MDA-MB-231 breast
786-0 renal = system: 786-0 renal
HOP-92 NSCLC = system: HOP-92 NSCLC
IGROV1 ovarian = system: IGROV1 ovarian
MDA-N = system: MDA-N
K-562 leukemia = system: K-562 leukemia
DU-145 prostate = system: DU-145 prostate
SF-268 CNS = system: SF-268 CNS
OVCAR-8 ovarian = system: OVCAR-8 ovarian
SN12C renal = system: SN12C renal
MALME-3M melanoma = system: MALME-3M melanoma
OVCAR-4 ovarian = system: OVCAR-4 ovarian
SK-MEL-2 melanoma = system: SK-MEL-2 melanoma
LOX IMVI melanoma = system: LOX IMVI melanoma
OVCAR-3 ovarian = system: OVCAR-3 ovarian
CAKI-1 renal = system: CAKI-1 renal
SF-539 CNS = system: SF-539 CNS
HT29 colon = system: HT29 colon
NCI-H226 lung = system: NCI-H226 lung
RPMI-8226 leukemia = system: RPMI-8226 leukemia
CCRF-CEM leukemia = system: CCRF-CEM leukemia
HCT-15 colon = system: HCT-15 colon
SR leukemia = system: SR leukemia
A549 NSCLC = system: A549 NSCLC
NCI-H23 lung = system: NCI-H23 lung
HL-60(TB) leukemia = system: HL-60(TB) leukemia
HOP-62 NSCLC = system: HOP-62 NSCLC
HCT-116 colon = system: HCT-116 colon
PC-3 prostate = system: PC-3 prostate
SW-620 colon = system: SW-620 colon
KM12 colon = system: KM12 colon
SK-OV-3 ovarian = system: SK-OV-3 ovarian
M14 melanoma = system: M14 melanoma
SF-295 CNS = system: SF-295 CNS
NCI/ADR-RES ovarian = system: NCI/ADR-RES ovarian
SNB-19 CNS = system: SNB-19 CNS
SK-MEL-5 melanoma = system: SK-MEL-5 melanoma
UACC-257 melanoma = system: UACC-257 melanoma
A498 renal = system: A498 renal
UO-31 renal = system: UO-31 renal
RXF 393 renal = system: RXF 393 renal
T-47D breast = system: T-47D breast
HCC-2998 colon = system: HCC-2998 colon
SK-MEL-28 melanoma = system: SK-MEL-28 melanoma

CC[C@H](Nc1c(O)c2c(c(O)c1Cl)C(=O)C=CC2=O)C(=O)OC
TGI (OVCAR-5 ovarian): > 10 µM
TGI (MOLT-4 leukemia): 9.57 µM
TGI (COLO 205 colon): > 10 µM
TGI (MCF7 breast): > 10 µM
TGI (ACHN renal): > 10 µM
TGI (UACC-62 melanoma): > 10 µM
TGI (U251 CNS): > 10 µM
TGI (NCI-H522 lung): > 10 µM
TGI (SNB-75 CNS): > 10 µM
TGI (TK-10 renal): > 10 µM
TGI (MDA-MB-435): > 10 µM
TGI (EKVX NSCLC): > 10 µM
TGI (NCI-H460 lung): > 10 µM
TGI (HS 578T breast): > 10 µM
TGI (BT-549 breast): > 10 µM
TGI (MDA-MB-231 breast): 9.76 µM
TGI (786-0 renal): > 10 µM
TGI (HOP-92 NSCLC): > 10 µM
TGI (IGROV1 ovarian): > 10 µM
TGI (MDA-N): > 10 µM
TGI (K-562 leukemia): > 10 µM
TGI (DU-145 prostate): > 10 µM
TGI (SF-268 CNS): > 10 µM
TGI (OVCAR-8 ovarian): > 10 µM
TGI (SN12C renal): 9.16 µM
TGI (MALME-3M melanoma): > 10 µM
TGI (OVCAR-4 ovarian): > 10 µM
TGI (SK-MEL-2 melanoma): > 10 µM
TGI (LOX IMVI melanoma): > 10 µM
TGI (OVCAR-3 ovarian): > 10 µM
TGI (CAKI-1 renal): > 10 µM
TGI (SF-539 CNS): 9.29 µM
TGI (HT29 colon): > 10 µM
TGI (NCI-H226 lung): > 10 µM
TGI (RPMI-8226 leukemia): > 10 µM
TGI (CCRF-CEM leukemia): > 10 µM
TGI (HCT-15 colon): > 10 µM
TGI (SR leukemia): 7.74 µM
TGI (A549 NSCLC): > 10 µM
TGI (NCI-H23 lung): > 10 µM
TGI (HL-60(TB) leukemia): 8.64 µM
TGI (HOP-62 NSCLC): > 10 µM
TGI (HCT-116 colon): 5.89 µM
TGI (PC-3 prostate): > 10 µM
TGI (SW-620 colon): > 10 µM
TGI (KM12 colon): > 10 µM
TGI (SK-OV-3 ovarian): > 10 µM
TGI (M14 melanoma): > 10 µM
TGI (SF-295 CNS): > 10 µM
TGI (NCI/ADR-RES ovarian): > 10 µM
TGI (SNB-19 CNS): > 10 µM
TGI (SK-MEL-5 melanoma): > 10 µM
TGI (UACC-257 melanoma): > 10 µM

O=C1CCCCCCCCCCC1CCCCCBr (centres undefined)
TGI (OVCAR-5 ovarian): 67.1 µM
TGI (A498 renal): 28.2 µM
TGI (MOLT-4 leukemia): 33.6 µM
TGI (COLO 205 colon): 35.8 µM
TGI (MCF7 breast): 63.3 µM
TGI (ACHN renal): 84 µM
TGI (UACC-62 melanoma): > 100 µM
TGI (U251 CNS): 43.3 µM
TGI (NCI-H522 lung): 44.4 µM
TGI (SNB-75 CNS): 49.8 µM
TGI (TK-10 renal): > 100 µM
TGI (MDA-MB-435): 97.7 µM
TGI (EKVX NSCLC): > 100 µM
TGI (NCI-H460 lung): > 100 µM
TGI (UO-31 renal): 65.9 µM
TGI (HS 578T breast): > 100 µM
TGI (MDA-MB-231 breast): 45.1 µM
TGI (786-0 renal): 86 µM
TGI (RXF 393 renal): 43.8 µM
TGI (HOP-92 NSCLC): 67.6 µM
TGI (IGROV1 ovarian): 56.2 µM
TGI (MDA-N): > 100 µM
TGI (K-562 leukemia): 34.5 µM
TGI (DU-145 prostate): > 100 µM
TGI (SF-268 CNS): > 100 µM
TGI (T-47D breast): 73.9 µM
TGI (HCC-2998 colon): 38.6 µM
TGI (OVCAR-8 ovarian): > 100 µM
TGI (SN12C renal): 43.1 µM
TGI (MALME-3M melanoma): 38.4 µM
TGI (OVCAR-4 ovarian): 67.2 µM
TGI (SK-MEL-2 melanoma): 32.4 µM
TGI (LOX IMVI melanoma): 37.8 µM
TGI (OVCAR-3 ovarian): 44.7 µM
TGI (CAKI-1 renal): 95.1 µM
TGI (SF-539 CNS): 59.1 µM
TGI (HT29 colon): 95.6 µM
TGI (NCI-H226 lung): 40 µM
TGI (CCRF-CEM leukemia): 35 µM
TGI (HCT-15 colon): 56.8 µM
TGI (SR leukemia): 44.1 µM
TGI (SK-MEL-28 melanoma): 84.4 µM
TGI (A549 NSCLC): > 100 µM
TGI (NCI-H23 lung): 74.8 µM
TGI (HOP-62 NSCLC): > 100 µM
TGI (HCT-116 colon): 45.9 µM
TGI (PC-3 prostate): > 100 µM
TGI (SW-620 colon): > 100 µM
TGI (KM12 colon): 53.7 µM
TGI (SK-OV-3 ovarian): > 100 µM
TGI (M14 melanoma): 83.6 µM
TGI (SF-295 CNS): > 100 µM
TGI (NCI/ADR-RES ovarian): 64.3 µM
TGI (SNB-19 CNS): 64.7 µM
TGI (SK-MEL-5 melanoma): 31.2 µM
TGI (UACC-257 melanoma): 58.5 µM
